The source of these data is PubChem BioAssay (NCI).

Among the test systems are HCT-15 colon; HOP-62 NSCLC; IGROV1 ovarian; MOLT-4 leukemia; NCI-H23 lung; OVCAR-3 ovarian; SF-268 CNS; UO-31 renal; OVCAR-8 ovarian; SN12C renal.
Common to all, as to assay: NCI-60 cell line screen, 48 h

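Values below derive from 48-hour exposures of cells grown in 96-well plates, with endpoints linearly interpolated between the two concentrations bracketing the appropriate inhibition level. GI50 marks 50% less growth. The concentration for full growth arrest is given as TGI.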 Bounds are passed on as bounds.

Consider `COc1ccc2c(c1)CCCN2CCCCCCCCCCN(CCC(C)C)CCC(C)C`, for which the TGI with HCT-15 colon worked out at 23.4 µM; in the assay on HOP-62 NSCLC it was 26.1 µM; in the assay with IGROV1 ovarian, 27.7 µM; in the assay with MOLT-4 leukemia, 22.6 µM; in the assay with NCI-H23 lung, 12.7 µM; in the assay with OVCAR-3 ovarian, 17.3 µM. The values for the TGI in the assay with SF-268 CNS and with UO-31 renal were 25.6 µM and 10.2 µM, respectively.

Consider `COc1ccc2c(C(=O)c3cn(CCN4CCOCC4)c4ccccc34)cccc2c1`, for which the TGI in the assay with HCT-15 colon is over 100 µM; in the assay on HOP-62 NSCLC it was over 100 µM; in the assay on IGROV1 ovarian, over 100 µM; with MOLT-4 leukemia it was 64.4 µM; in the assay on NCI-H23 lung, over 100 µM; in the assay with OVCAR-3 ovarian it was over 25.5 µM. The TGI with OVCAR-8 ovarian, in the assay with SF-268 CNS, with SN12C renal and in the assay with UO-31 renal was over 100 µM throughout.

Consider `C[C@H]1C(=O)O[C@@H]2CCN3CC=C(COC(=O)[C@](C)(O)[C@@]1(C)O)[C@H]23`, for which the TGI in the assay with HCT-15 colon, in the assay with HOP-62 NSCLC, with IGROV1 ovarian, in the assay on MOLT-4 leukemia, with NCI-H23 lung and with OVCAR-3 ovarian was over 100 µM each time. Further, the TGI with OVCAR-8 ovarian, in the assay with SF-268 CNS, in the assay with SN12C renal and with UO-31 renal was over 100 µM in each case.

With `CC(=O)NNc1nc(-c2ccc([N+](=O)[O-])cc2)c(C#N)c(=O)n1C`, the TGI is over 100 µM with HCT-15 colon; 52.5 µM in the assay with HOP-62 NSCLC; 35 µM with IGROV1 ovarian; over 100 µM in the assay with MOLT-4 leukemia; over 100 µM with NCI-H23 lung; 31.4 µM in the assay with OVCAR-3 ovarian. Moreover, the TGI in the assay with OVCAR-8 ovarian is 89.3 µM; with SF-268 CNS it was over 100 µM; in the assay on SN12C renal it was over 100 µM; with UO-31 renal, over 100 µM.

Turning to `CN(C)CCNC(=O)c1cccc2ccc(-c3ccc(F)cc3)nc12`, the TGI in the assay with HCT-15 colon came out at 16.1 µM; in the assay on HOP-62 NSCLC, 27.8 µM; in the assay on IGROV1 ovarian, 20.3 µM; with MOLT-4 leukemia, 7.03 µM; in the assay with NCI-H23 lung, 17.1 µM; with OVCAR-3 ovarian, 33.5 µM. Moreover, the TGI with OVCAR-8 ovarian is 15.8 µM; in the assay with SF-268 CNS, 22.2 µM; in the assay on SN12C renal, 25.2 µM; in the assay with UO-31 renal, 11.4 µM.

In the case of `Nc1ccccc1N=Cc1cc2cc([N+](=O)[O-])ccc2s1`, the TGI in the assay with HCT-15 colon was over 100 µM; in the assay with HOP-62 NSCLC it was 31.7 µM; in the assay on IGROV1 ovarian it was 99.3 µM; in the assay with MOLT-4 leukemia, 13.6 µM; in the assay on NCI-H23 lung, over 100 µM; with OVCAR-3 ovarian it was 30.1 µM. Moreover, the TGI in the assay on OVCAR-8 ovarian is 45.7 µM; with SF-268 CNS it was 35.6 µM; in the assay on SN12C renal, over 100 µM; in the assay on UO-31 renal, 48.8 µM.

As for `COc1ccc(C2=C3SC=c4ccccc4=C3ON=C2c2ccccc2)cc1`, the TGI with HCT-15 colon, in the assay on HOP-62 NSCLC, in the assay on IGROV1 ovarian, in the assay on MOLT-4 leukemia, in the assay on NCI-H23 lung and with OVCAR-3 ovarian was over 100 µM throughout. The TGI in the assay on OVCAR-8 ovarian, in the assay with SF-268 CNS, in the assay with SN12C renal and with UO-31 renal was over 100 µM each time.

As for `N=C1C(=N)c2ccccc2-c2ccccc21.N=C1C(=N)c2ccccc2-c2ccccc21.N=C1C(=N)c2ccccc2-c2ccccc21.[Cl-].[Ru+2]`, the TGI turned out to be 8.97 µM in the assay on HOP-62 NSCLC; 5.01 µM in the assay on IGROV1 ovarian; 5.46 µM in the assay on MOLT-4 leukemia; 4.93 µM with NCI-H23 lung; 3.08 µM with OVCAR-3 ovarian; 3.14 µM with OVCAR-8 ovarian. Further, the TGI with SF-268 CNS is 3.28 µM; with SN12C renal it was 2.94 µM; in the assay on UO-31 renal it was 4.71 µM.

`Nc1n[nH]c(=O)c2c1c(I)cn2C1OC(CO)C(O)C1O` (configuration not stated): the TGI in the assay with HCT-15 colon is 3.05 µM; with HOP-62 NSCLC, 21.5 µM; with IGROV1 ovarian, over 100 µM; in the assay on MOLT-4 leukemia, 2.29 µM; with NCI-H23 lung it was 1.96 µM; in the assay on OVCAR-3 ovarian it was over 100 µM. The TGI with OVCAR-8 ovarian amounted to 1.44 µM; with SF-268 CNS, 25.7 µM; in the assay with SN12C renal, 66.1 µM; in the assay on UO-31 renal, 5.86 µM.

Consider `NCCc1cc(O)c(O)cc1O`, for which the TGI with HCT-15 colon is 44.5 µM; in the assay with HOP-62 NSCLC, 45 µM; in the assay on IGROV1 ovarian it was 38.2 µM; with MOLT-4 leukemia, 70.7 µM; with NCI-H23 lung it was over 69.6 µM; with OVCAR-3 ovarian, 58.4 µM. In addition, the TGI in the assay with OVCAR-8 ovarian was over 53.6 µM; with SF-268 CNS it was 58.5 µM; in the assay with SN12C renal, 39.4 µM; in the assay on UO-31 renal it was 51.2 µM. Moreover, the GI50 in the assay with NCI-H23 lung was 24.2 µM.

As for `O=C1NI(C#Cc2ccccc2)c2ccccc21`, the TGI in the assay with HCT-15 colon, in the assay on HOP-62 NSCLC, in the assay with IGROV1 ovarian, with MOLT-4 leukemia, in the assay on NCI-H23 lung and in the assay on OVCAR-3 ovarian was over 100 µM in each case. In addition, the TGI in the assay on OVCAR-8 ovarian, in the assay with SF-268 CNS, in the assay on SN12C renal and with UO-31 renal was over 100 µM each time.

With `COc1cc(/C=C/C(=O)Oc2ccc(NC(C)=O)cc2)ccc1C(=O)O/C=C/c1ccccc1`, the TGI in the assay on HCT-15 colon, in the assay with HOP-62 NSCLC, in the assay on IGROV1 ovarian, in the assay with MOLT-4 leukemia, in the assay on NCI-H23 lung and in the assay with OVCAR-3 ovarian was over 100 µM in each case. The TGI with OVCAR-8 ovarian, in the assay on SF-268 CNS, in the assay with SN12C renal and in the assay on UO-31 renal was over 100 µM throughout.

With `CN(C)CCCn1cnc2cc(Cl)c(Cl)cc21`, the TGI in the assay on HCT-15 colon, in the assay on HOP-62 NSCLC, in the assay with IGROV1 ovarian, with NCI-H23 lung, in the assay with OVCAR-3 ovarian and in the assay on OVCAR-8 ovarian was over 100 µM each time. Moreover, the TGI with SF-268 CNS, with SN12C renal and with UO-31 renal was over 100 µM throughout.
